Where two headings read alike, the source gives them in different places. Positions of bridges follow the written chain, without caps; N, C: chain ends. Non-standard residues stand in square brackets, D forms with d. Residues, ends and D or L forms follow the SMILES beside them. Groups on a side chain read outwards from the residue. *: point of attachment. DOTA = O=C(O)CN1CCN(CC(=O)O)CCN(CC(=O)*)CCN(CC(=O)O)CC1; 2Nal = N[C@@H](Cc1ccc2ccccc2c1)C(=O)O; Lys(iPr) = CC(C)NCCCC[C@H](N)C(=O)O
Assays:
[1] = Biodistribution in Z138 tumor-bearing mice; format: in vivo; settings: male, mouse, iv, total radioactivity
Experimental: (§1) For Daudi, Z138, GRANTA519 and Jeko1 xenografts, male NOD.Cg-Rag1^tm1MomII2rg^tm1Wjl/SzJ (NRG) mice were subcutaneously inoculated on the left flank with 5×10^6 cells (100 μL; 1:1 ratio of PBS/Matrigel) and tumors were grown to a size of 200-500 mm^3. For PC-3 xenografts, male NOD.Cg-Rag1^tm1MomII2rg^tm1Wjl/SzJ (NRG) mice were subcutaneously inoculated on the left flank with 5×10^6 PC-3 cells (100 μL; 1:1 ratio of PBS/Matrigel) and tumors were grown to a size of 200-400 mm^3.
(§2) The mice were euthanized via CO2 inhalation while anesthetized with isoflurane. Tissues were harvested, washed in PBS, blotted dry, weighed, and measured on a Hidex AMG Automatic Gamma Counter.

[2] = system: Z138 mantle cell lymphoma xenografts; experiment: Biodistribution in Z138 tumor-bearing mice; format: in vivo
Experimental: as §1, §2

[3] = NOD.Cg-Rag1^tm1MomII2rg^tm1Wjl/SzJ (NRG), blood, read-out: Biodistribution Blood
[4] = NOD.Cg-Rag1^tm1MomII2rg^tm1Wjl/SzJ (NRG), bone, read-out: Biodistribution Bone
[5] = NOD.Cg-Rag1^tm1MomII2rg^tm1Wjl/SzJ (NRG), brain, read-out: Biodistribution Brain
[6] = NOD.Cg-Rag1^tm1MomII2rg^tm1Wjl/SzJ (NRG), fat, read-out: Biodistribution Fat
[7] = NOD.Cg-Rag1^tm1MomII2rg^tm1Wjl/SzJ (NRG), intestine, read-out: Biodistribution Intestine
[8] = NOD.Cg-Rag1^tm1MomII2rg^tm1Wjl/SzJ (NRG), stomach, read-out: Biodistribution Stomach
[9] = NOD.Cg-Rag1^tm1MomII2rg^tm1Wjl/SzJ (NRG), testes, read-out: Biodistribution Testes
[10] = NOD.Cg-Rag1^tm1MomII2rg^tm1Wjl/SzJ (NRG), tumour (Z138 xenograft), read-out: Biodistribution Z138 (tumour)
[11] = NOD.Cg-Rag1tm1Mom Il2rgtm1Wjl/SzJ (NRG), adrenals, read-out: Biodistribution Adrenals
[12] = NOD.Cg-Rag1tm1Mom Il2rgtm1Wjl/SzJ (NRG), heart, read-out: Biodistribution Heart
[13] = NOD.Cg-Rag1tm1Mom Il2rgtm1Wjl/SzJ (NRG), kidney, read-out: Biodistribution Kidney
[14] = NOD.Cg-Rag1tm1Mom Il2rgtm1Wjl/SzJ (NRG), liver, read-out: Biodistribution Liver
[15] = NOD.Cg-Rag1tm1Mom Il2rgtm1Wjl/SzJ (NRG), lung, read-out: Biodistribution Lung
[16] = NOD.Cg-Rag1tm1Mom Il2rgtm1Wjl/SzJ (NRG), muscle, read-out: Biodistribution Muscle
[17] = NOD.Cg-Rag1tm1Mom Il2rgtm1Wjl/SzJ (NRG), pancreas, read-out: Biodistribution Pancreas
[18] = NOD.Cg-Rag1tm1Mom Il2rgtm1Wjl/SzJ (NRG), spleen, read-out: Biodistribution Spleen

## CC(C)NCCCC[C@@H]1NC(=O)[C@H](Cc2ccc(O)cc2)NC(=O)[C@H](Cc2ccccc2)NC(=O)CC[C@H](C(=O)N[C@@H](CCCCNC(C)C)C(=O)N[C@@H](CCCCNC(=O)[C@H](CCC(=O)O)NC(=O)[C@H](CCC(=O)O)NC(=O)[C@H](CCC(=O)O)NC(=O)CN2CCN(CC(=O)O)CCN(CC(=O)O)CCN(CC(=O)O)CC2)C(N)=O)NC(=O)CNC(=O)[C@H](Cc2ccc3ccccc3c2)NC(=O)[C@@H](CCCNC(=N)N)NC1=O [[^177Lu]Lu-BL02, metal not drawn] (FY[Lys(iPr)][dR][2Nal]G[dE][Lys(iPr)]K([Glu-Glu-Glu-DOTA])-NH2; lactam N-7)
[1]; NOD.Cg-Rag1^tm1MomII2rg^tm1Wjl/SzJ (NRG), blood, 1 h, read-out: Biodistribution Blood
  tissue uptake at 1 h: 0.44 %ID/g
[1]; [3]
  tissue uptake at 4 h: 0.03 %ID/g
  tissue uptake at 24 h: 0.01 %ID/g
  tissue uptake at 72 h: 0.007 %ID/g
[1]; NOD.Cg-Rag1^tm1MomII2rg^tm1Wjl/SzJ (NRG), blood, with LY2510924 7.5 μg i.p. 15 min before radiotracer, 1 h blocked, read-out: Biodistribution Blood
  tissue uptake at 1 h: 2.06 %ID/g
[1]; NOD.Cg-Rag1^tm1MomII2rg^tm1Wjl/SzJ (NRG), bone, 1 h, read-out: Biodistribution Bone
  tissue uptake at 1 h: 0.25 %ID/g
[1]; [4]
  tissue uptake at 4 h: 0.11 %ID/g
  tissue uptake at 24 h: 0.085 %ID/g
  tissue uptake at 72 h: 0.053 %ID/g
[1]; NOD.Cg-Rag1^tm1MomII2rg^tm1Wjl/SzJ (NRG), bone, 1 h blocked, read-out: Biodistribution Bone
  tissue uptake at 1 h: 0.49 %ID/g
[1]; NOD.Cg-Rag1^tm1MomII2rg^tm1Wjl/SzJ (NRG), brain, 1 h, read-out: Biodistribution Brain
  tissue uptake at 1 h: 0.02 %ID/g
[1]; NOD.Cg-Rag1^tm1MomII2rg^tm1Wjl/SzJ (NRG), brain, 1 h blocked, read-out: Biodistribution Brain
  tissue uptake at 1 h: 0.04 %ID/g
[1]; [5]
  tissue uptake at 4 h: 0.01 %ID/g
  tissue uptake at 24 h: 0.003 %ID/g
  tissue uptake at 72 h: 0.001 %ID/g
[1]; NOD.Cg-Rag1^tm1MomII2rg^tm1Wjl/SzJ (NRG), fat, 1 h, read-out: Biodistribution Fat
  tissue uptake at 1 h: 0.07 %ID/g
[1]; [6]
  tissue uptake at 4 h: 0.03 %ID/g
  tissue uptake at 24 h: 0.011 %ID/g
  tissue uptake at 72 h: 0.008 %ID/g
[1]; NOD.Cg-Rag1^tm1MomII2rg^tm1Wjl/SzJ (NRG), fat, with LY2510924 7.5 μg i.p. 15 min before radiotracer, 1 h blocked, read-out: Biodistribution Fat
  tissue uptake at 1 h: 0.19 %ID/g
[1]; NOD.Cg-Rag1^tm1MomII2rg^tm1Wjl/SzJ (NRG), intestine, 1 h, read-out: Biodistribution Intestine
  tissue uptake at 1 h: 0.27 %ID/g
[1]; NOD.Cg-Rag1^tm1MomII2rg^tm1Wjl/SzJ (NRG), intestine, 1 h blocked, read-out: Biodistribution Intestine
  tissue uptake at 1 h: 0.75 %ID/g
[1]; [7]
  tissue uptake at 4 h: 0.09 %ID/g
  tissue uptake at 24 h: 0.126 %ID/g
  tissue uptake at 72 h: 0.023 %ID/g
[1]; NOD.Cg-Rag1^tm1MomII2rg^tm1Wjl/SzJ (NRG), stomach, 1 h, read-out: Biodistribution Stomach
  tissue uptake at 1 h: 0.12 %ID/g
[1]; NOD.Cg-Rag1^tm1MomII2rg^tm1Wjl/SzJ (NRG), stomach, 1 h blocked, read-out: Biodistribution Stomach
  tissue uptake at 1 h: 0.2 %ID/g
[1]; [8]
  tissue uptake at 4 h: 0.07 %ID/g
  tissue uptake at 24 h: 0.052 %ID/g
  tissue uptake at 72 h: 0.022 %ID/g
[1]; NOD.Cg-Rag1^tm1MomII2rg^tm1Wjl/SzJ (NRG), testes, 1 h, read-out: Biodistribution Testes
  tissue uptake at 1 h: 0.18 %ID/g
[1]; [9]
  tissue uptake at 4 h: 0.04 %ID/g
  tissue uptake at 24 h: 0.032 %ID/g
  tissue uptake at 72 h: 0.029 %ID/g
[1]; NOD.Cg-Rag1^tm1MomII2rg^tm1Wjl/SzJ (NRG), testes, with LY2510924 7.5 μg i.p. 15 min before radiotracer, 1 h blocked, read-out: Biodistribution Testes
  tissue uptake at 1 h: 0.39 %ID/g
[1]; NOD.Cg-Rag1^tm1MomII2rg^tm1Wjl/SzJ (NRG), tumour (Z138 xenograft), 1 h, read-out: Biodistribution Z138 (tumour)
  tissue uptake at 1 h: 17.2 %ID/g
[1]; NOD.Cg-Rag1^tm1MomII2rg^tm1Wjl/SzJ (NRG), tumour (Z138 xenograft), 1 h blocked, read-out: Biodistribution Z138 (tumour)
  tissue uptake at 1 h: 3.75 %ID/g
[1]; [10]
  tissue uptake at 4 h: 15.6 %ID/g
  tissue uptake at 24 h: 8.79 %ID/g
  tissue uptake at 72 h: 3.57 %ID/g
[1]; NOD.Cg-Rag1tm1Mom Il2rgtm1Wjl/SzJ (NRG), adrenals, 1 h, read-out: Biodistribution Adrenals
  tissue uptake at 1 h: 0.46 %ID/g
[1]; NOD.Cg-Rag1tm1Mom Il2rgtm1Wjl/SzJ (NRG), adrenals, 1 h blocked, read-out: Biodistribution Adrenals
  tissue uptake at 1 h: 0.47 %ID/g
[1]; [11]
  tissue uptake at 4 h: 0.13 %ID/g
  tissue uptake at 24 h: 0.117 %ID/g
  tissue uptake at 72 h: 0.073 %ID/g
[1]; NOD.Cg-Rag1tm1Mom Il2rgtm1Wjl/SzJ (NRG), heart, 1 h, read-out: Biodistribution Heart
  tissue uptake at 1 h: 0.18 %ID/g
[1]; NOD.Cg-Rag1tm1Mom Il2rgtm1Wjl/SzJ (NRG), heart, 1 h blocked, read-out: Biodistribution Heart
  tissue uptake at 1 h: 0.46 %ID/g
[1]; [12]
  tissue uptake at 4 h: 0.05 %ID/g
  tissue uptake at 24 h: 0.035 %ID/g
  tissue uptake at 72 h: 0.022 %ID/g
[1]; NOD.Cg-Rag1tm1Mom Il2rgtm1Wjl/SzJ (NRG), kidney, 1 h, read-out: Biodistribution Kidney
  tissue uptake at 1 h: 3.87 %ID/g
[1]; NOD.Cg-Rag1tm1Mom Il2rgtm1Wjl/SzJ (NRG), kidney, 1 h blocked, read-out: Biodistribution Kidney
  tissue uptake at 1 h: 10.9 %ID/g
[1]; [13]
  tissue uptake at 4 h: 3.27 %ID/g
  tissue uptake at 24 h: 1.43 %ID/g
  tissue uptake at 72 h: 0.56 %ID/g
[1]; NOD.Cg-Rag1tm1Mom Il2rgtm1Wjl/SzJ (NRG), liver, 1 h, read-out: Biodistribution Liver
  tissue uptake at 1 h: 0.93 %ID/g
[1]; NOD.Cg-Rag1tm1Mom Il2rgtm1Wjl/SzJ (NRG), liver, 1 h blocked, read-out: Biodistribution Liver
  tissue uptake at 1 h: 0.99 %ID/g
[1]; [14]
  tissue uptake at 4 h: 0.92 %ID/g
  tissue uptake at 24 h: 0.703 %ID/g
  tissue uptake at 72 h: 0.436 %ID/g
[1]; NOD.Cg-Rag1tm1Mom Il2rgtm1Wjl/SzJ (NRG), lung, 1 h, read-out: Biodistribution Lung
  tissue uptake at 1 h: 0.83 %ID/g
[1]; NOD.Cg-Rag1tm1Mom Il2rgtm1Wjl/SzJ (NRG), lung, 1 h blocked, read-out: Biodistribution Lung
  tissue uptake at 1 h: 1.57 %ID/g
[1]; [15]
  tissue uptake at 4 h: 0.26 %ID/g
  tissue uptake at 24 h: 0.176 %ID/g
  tissue uptake at 72 h: 0.184 %ID/g
[1]; NOD.Cg-Rag1tm1Mom Il2rgtm1Wjl/SzJ (NRG), muscle, 1 h, read-out: Biodistribution Muscle
  tissue uptake at 1 h: 0.1 %ID/g
[1]; NOD.Cg-Rag1tm1Mom Il2rgtm1Wjl/SzJ (NRG), muscle, 1 h blocked, read-out: Biodistribution Muscle
  tissue uptake at 1 h: 0.45 %ID/g
[1]; [16]
  tissue uptake at 4 h: 0.03 %ID/g
  tissue uptake at 24 h: 0.019 %ID/g
  tissue uptake at 72 h: 0.01 %ID/g
[1]; NOD.Cg-Rag1tm1Mom Il2rgtm1Wjl/SzJ (NRG), pancreas, 1 h, read-out: Biodistribution Pancreas
  tissue uptake at 1 h: 0.14 %ID/g
[1]; NOD.Cg-Rag1tm1Mom Il2rgtm1Wjl/SzJ (NRG), pancreas, 1 h blocked, read-out: Biodistribution Pancreas
  tissue uptake at 1 h: 0.31 %ID/g
[1]; [17]
  tissue uptake at 4 h: 0.04 %ID/g
  tissue uptake at 24 h: 0.034 %ID/g
  tissue uptake at 72 h: 0.016 %ID/g
[1]; NOD.Cg-Rag1tm1Mom Il2rgtm1Wjl/SzJ (NRG), spleen, 1 h, read-out: Biodistribution Spleen
  tissue uptake at 1 h: 0.56 %ID/g
[1]; NOD.Cg-Rag1tm1Mom Il2rgtm1Wjl/SzJ (NRG), spleen, 1 h blocked, read-out: Biodistribution Spleen
  tissue uptake at 1 h: 0.56 %ID/g
[1]; [18]
  tissue uptake at 4 h: 0.33 %ID/g
  tissue uptake at 24 h: 0.277 %ID/g
  tissue uptake at 72 h: 0.288 %ID/g
[2]; 1 h
  Ratio Tumour:Blood: 38.98
  Ratio Tumour:Bone: 74.82
  Ratio Tumour:Liver: 18.53
  Ratio Tumour:Lung: 21.08
  Ratio Tumour:Muscle: 166.59
  Ratio Tumour:Spleen: 33.05
[2]; 1 h blocked
  Ratio Tumour:Blood: 2.74
  Ratio Tumour:Bone: 9.53
  Ratio Tumour:Liver: 3.84
  Ratio Tumour:Lung: 2.75
  Ratio Tumour:Muscle: 13.22
  Ratio Tumour:Spleen: 6.87
[2]; 4 h
  Ratio Tumour:Blood: 627.62
  Ratio Tumour:Bone: 145.11
  Ratio Tumour:Liver: 16.93
  Ratio Tumour:Lung: 60.62
  Ratio Tumour:Muscle: 503.09
  Ratio Tumour:Spleen: 49.43
[2]; 24 h
  Ratio Tumour:Blood: 873.49
  Ratio Tumour:Bone: 109.48
  Ratio Tumour:Liver: 12.51
  Ratio Tumour:Lung: 52.72
  Ratio Tumour:Muscle: 463.22
  Ratio Tumour:Spleen: 31.90
[2]; 72 h
  Ratio Tumour:Blood: 613.24

— US20220218852A1, “NOVEL RADIOLABELLED CXCR4-TARGETING COMPOUNDS FOR DIAGNOSIS AND THERAPY” (PROVINCIAL HEALTH SERVICES AUTHORITY, priority 2019, published 2022)
